# Assay results from patent US9302999B2, “Substituted triazoles as herbicides” (E. I. DU PONT DE NEMOURS AND COMPANY, priority 2012, dated 2016).
# Experiments:
# Format in all cases: in vivo
# [1] = system: pigweed (Amaranthus retroflexus); assay: Test A pre-/postemergence: pigweed
# Summary of the method: (§1)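 Injury was scored visually on a 0 (no effect) to 100 (complete control) scale versus untreated controls roughly ten days after treatment in the greenhouse. Compounds, formulated in surfactant-containing non-phytotoxic solvent, went on as soil-directed preemergence spray or postemergence to one- to two-leaf plants 2–10 cm tall.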
# [2] = system: crabgrass, large (large crabgrass, Digitaria sanguinalis); assay: Test A pre-/postemergence: crabgrass, large
# Summary of the method: as §1
# [3] = system: foxtail, giant (giant foxtail, Setaria faberii); assay: Test A pre-/postemergence: foxtail, giant
# Summary of the method: as §1
# rice (Oryza sativa) = assay: Test C flooded paddy test: rice; conditions: scale 0 to 100 (0 no effect, 100 complete control)
# Summary of the method: (§2)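 Plants were grown to the 2-leaf stage, pots flooded to 3 cm above soil, and test compounds applied directly to the paddy water, with that depth held throughout. After 13 to 15 days in a greenhouse, injury was visually rated against controls on a 0 (no effect) to 100 (complete control) scale.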
# [4] = system: barnyardgrass (Echinochloa crus-galli); assay: Test A pre-/postemergence: barnyardgrass
# Summary of the method: as §1
# [5] = system: barnyardgrass (Echinochloa crus-galli); assay: Test C flooded paddy test: barnyardgrass; conditions: scale 0 to 100 (0 no effect, 100 complete control)
# Summary of the method: as §2
# [6] = system: wheat (Triticum aestivum); assay: Test A pre-/postemergence: wheat
# Summary of the method: as §1
# [7] = system: ducksalad (Heteranthera limosa); assay: Test C flooded paddy test: ducksalad; conditions: scale 0 to 100 (0 no effect, 100 complete control)
# Summary of the method: as §2
# [8] = system: morningglory (Ipomoea spp.); assay: Test A pre-/postemergence: morningglory
# Summary of the method: as §1
# [9] = system: sedge, umbrella (small-flower umbrella sedge, Cyperus difformis); assay: Test C flooded paddy test: sedge, umbrella; conditions: scale 0 to 100 (0 no effect, 100 complete control)
# Summary of the method: as §2
# [10] = system: velvetleaf (Abutilon theophrasti); assay: Test A pre-/postemergence: velvetleaf
# Summary of the method: as §1
# corn (Zea mays) = assay: Test A pre-/postemergence: corn
# Summary of the method: as §1
# [11] = Postemergence, 1000 g ai/ha, visual rating on 0 to 100 scale (0 no effect, 100 complete control), approximately ten days
# [12] = Preemergence, 1000 g ai/ha, 0 to 100 scale, 0 is no effect, 100 is complete control
# [13] = Flood (flooded paddy test), 250 g ai/ha, visual rating after 13 to 15 days
# [14] = Flood (flooded paddy test), 125 g ai/ha, visual rating after 13 to 15 days
# [15] = Postemergence, 125 g ai/ha, 0 to 100 scale, 0 is no effect, 100 is complete control
# [16] = Postemergence, 500 g ai/ha, visual rating on 0 to 100 scale (0 no effect, 100 complete control), approximately ten days
# [17] = Preemergence, 125 g ai/ha, 0 to 100 scale (0 no effect, 100 complete control)
# [18] = Preemergence, 500 g ai/ha, 0 to 100 scale, 0 is no effect, 100 is complete control
# [19] = Flood (flooded paddy test), 62 g ai/ha, visual rating after 13 to 15 days
structure (smiles),measurement,setting,value
CCc1nn(-c2ccc(C(F)(F)F)cc2)nc1Cn1cnc(C(F)(F)F)c1 [Compound 133],Pigweed plant response rating,[1]; [11],100
same,"Plant response rating, Pigweed",[1]; [12],90
same,"Crabgrass, Large plant response rating",[2]; [11],80
same,"Plant response rating, Crabgrass, Large",[2]; [12],90
same,"Foxtail, Giant plant response rating",[3]; [11],70
same,"Plant response rating, Foxtail, Giant",[3]; [12],90
same,"Plant response rating, Rice",rice (Oryza sativa); [13],0
same,"Plant response rating, Rice","rice (Oryza sativa); Flood, 62 g ai/ha",0
same,Barnyardgrass plant response rating,[4]; [11],40
same,"Plant response rating, Barnyardgrass",[4]; [12],40
same,"Plant response rating, Barnyardgrass",[5]; [13],15
same,"Plant response rating, Barnyardgrass","[5]; Flood, 62 g ai/ha",0
same,Wheat plant response rating,[6]; [11],30
same,"Plant response rating, Wheat",[6]; [12],0
same,"Plant response rating, Ducksalad",[7]; [13],20
same,"Plant response rating, Ducksalad","[7]; Flood, 62 g ai/ha",0
same,Morningglory plant response rating,[8]; [11],90
same,"Plant response rating, Morningglory",[8]; [12],40
same,"Plant response rating, Sedge, Umbrella",[9]; [13],50
same,"Plant response rating, Sedge, Umbrella","[9]; Flood, 62 g ai/ha",0
same,Velvetleaf plant response rating,[10]; [11],90
same,"Plant response rating, Velvetleaf",[10]; [12],40
same,Corn plant response rating,corn (Zea mays); [11],20
same,"Plant response rating, Corn",corn (Zea mays); [12],10
Cc1nn(-c2ccc(C(F)(F)F)cn2)nc1Oc1cccc(C(F)(F)F)c1 [Compound 109],Pigweed plant response rating,[1]; [11],100
same,Pigweed plant response rating,[1]; [12],100
same,"Crabgrass, Large plant response rating",[2]; [11],90
same,"Crabgrass, Large plant response rating",[2]; [12],100
same,"Foxtail, Giant plant response rating",[3]; [11],90
same,"Foxtail, Giant plant response rating",[3]; [12],100
same,"Plant response rating, Rice",rice (Oryza sativa); [14],15
same,"Plant response rating, Rice",rice (Oryza sativa); [13],25
same,"Plant response rating, Rice","rice (Oryza sativa); Flood, 31 g ai/ha",15
same,"Plant response rating, Rice","rice (Oryza sativa); Flood, 62 g ai/ha",15
same,Barnyardgrass plant response rating,[4]; [11],90
same,Barnyardgrass plant response rating,[4]; [12],100
same,"Plant response rating, Barnyardgrass",[5]; [14],40
same,"Plant response rating, Barnyardgrass",[5]; [13],75
same,"Plant response rating, Barnyardgrass","[5]; Flood, 31 g ai/ha",0
same,"Plant response rating, Barnyardgrass","[5]; Flood, 62 g ai/ha",20
same,Wheat plant response rating,[6]; [11],50
same,Wheat plant response rating,[6]; [12],20
same,"Plant response rating, Ducksalad",[7]; [14],60
same,"Plant response rating, Ducksalad",[7]; [13],80
same,"Plant response rating, Ducksalad","[7]; Flood, 31 g ai/ha",0
same,"Plant response rating, Ducksalad","[7]; Flood, 62 g ai/ha",20
same,Morningglory plant response rating,[8]; [11],90
same,Morningglory plant response rating,[8]; [12],50
same,"Plant response rating, Sedge, Umbrella",[9]; [14],85
same,"Plant response rating, Sedge, Umbrella",[9]; [13],85
same,"Plant response rating, Sedge, Umbrella","[9]; Flood, 31 g ai/ha",38
same,"Plant response rating, Sedge, Umbrella","[9]; Flood, 62 g ai/ha",63
same,Velvetleaf plant response rating,[10]; [11],80
same,Velvetleaf plant response rating,[10]; [12],30
same,Corn plant response rating,corn (Zea mays); [11],90
same,Corn plant response rating,corn (Zea mays); [12],40
Cc1nn(-c2ccc(F)cc2)nc1Cn1c(Cl)nc(C(F)(F)F)c1Cl [Compound 20],Pigweed plant response rating,[1]; [15],0
same,Pigweed plant response rating,[1]; [16],30
same,"Plant response rating, Pigweed",[1]; [17],0
same,"Plant response rating, Pigweed",[1]; [18],0
same,"Crabgrass, Large plant response rating",[2]; [15],0
same,"Crabgrass, Large plant response rating",[2]; [16],10
same,"Plant response rating, Crabgrass, Large",[2]; [17],0
same,"Plant response rating, Crabgrass, Large",[2]; [18],0
same,"Foxtail, Giant plant response rating",[3]; [15],0
same,"Foxtail, Giant plant response rating",[3]; [16],10
same,"Plant response rating, Foxtail, Giant",[3]; [17],0
same,"Plant response rating, Foxtail, Giant",[3]; [18],0
same,"Plant response rating, Rice",rice (Oryza sativa); [19],0
same,"Plant response rating, Rice",rice (Oryza sativa); [14],0
same,"Plant response rating, Rice",rice (Oryza sativa); [13],0
same,"Plant response rating, Rice","rice (Oryza sativa); Flood, 31 g ai/ha",0
same,Barnyardgrass plant response rating,[4]; [15],0
same,Barnyardgrass plant response rating,[4]; [16],0
same,"Plant response rating, Barnyardgrass",[4]; [17],0
same,"Plant response rating, Barnyardgrass",[4]; [18],0
same,"Plant response rating, Barnyardgrass",[5]; [19],0
same,"Plant response rating, Barnyardgrass",[5]; [14],0
same,"Plant response rating, Barnyardgrass",[5]; [13],0
same,"Plant response rating, Barnyardgrass","[5]; Flood, 31 g ai/ha",0
same,Wheat plant response rating,[6]; [15],0
same,Wheat plant response rating,[6]; [16],0
same,"Plant response rating, Wheat",[6]; [17],0
same,"Plant response rating, Wheat",[6]; [18],0
same,"Plant response rating, Ducksalad",[7]; [19],0
same,"Plant response rating, Ducksalad",[7]; [14],0
same,"Plant response rating, Ducksalad",[7]; [13],0
same,"Plant response rating, Ducksalad","[7]; Flood, 31 g ai/ha",0
same,Morningglory plant response rating,[8]; [15],0
same,Morningglory plant response rating,[8]; [16],10
same,"Plant response rating, Morningglory",[8]; [17],0
same,"Plant response rating, Morningglory",[8]; [18],0
same,"Plant response rating, Sedge, Umbrella",[9]; [19],0
same,"Plant response rating, Sedge, Umbrella",[9]; [14],0
same,"Plant response rating, Sedge, Umbrella",[9]; [13],0
same,"Plant response rating, Sedge, Umbrella","[9]; Flood, 31 g ai/ha",0
same,Velvetleaf plant response rating,[10]; [15],0
same,Velvetleaf plant response rating,[10]; [16],20
same,"Plant response rating, Velvetleaf",[10]; [17],0
same,"Plant response rating, Velvetleaf",[10]; [18],0
same,Corn plant response rating,corn (Zea mays); [15],0
same,Corn plant response rating,corn (Zea mays); [16],10
same,"Plant response rating, Corn",corn (Zea mays); [17],0
same,"Plant response rating, Corn",corn (Zea mays); [18],0
